ChEMBL document CHEMBL1909607, “Synthesis and radioligand binding studies of bis-(8-isopropyl-isoquinolinium) derivatives as ligands for apamin-sensitive sites on cloned SK2 and SK3 channels” (Bioorg Med Chem Lett, 2011)

Key:
Format in all cases: cell-based
[1] = molecular target: T1, Small conductance calcium-activated potassium channel protein 2 (Homo sapiens, UniProt Q9H2S1); assay: Inhibition of cloned SK2 channel expressed in human HEK293 cells at 10 uM
[2] = molecular target: T2, Small conductance calcium-activated potassium channel protein 3 (Homo sapiens, UniProt Q9UGI6); assay: Displacement of [125I]-apamin from cloned SK3 channel expressed in human HEK293 cells after 1 hr by liquid scintillation counting
[3] = molecular target: T1, Small conductance calcium-activated potassium channel protein 2; assay: Displacement of [125I]-apamin from cloned SK2 channel expressed in human HEK293 cells after 1 hr by liquid scintillation counting
[4] = molecular target: Small conductance calcium-activated potassium channel protein 2 (Rattus norvegicus, UniProt P70604); assay: Inhibition of cloned rat SK2 channel expressed in human HEK293 cells by patch clamp assay in the presence of 1 uM intracellular Ca2+
[5] = molecular target: T2, Small conductance calcium-activated potassium channel protein 3; assay: Inhibition of cloned human SK3 channel expressed in human HEK293 cells by patch clamp assay in the presence of 1 uM intracellular Ca2+

T2 sequence (Q9UGI6 whole entry): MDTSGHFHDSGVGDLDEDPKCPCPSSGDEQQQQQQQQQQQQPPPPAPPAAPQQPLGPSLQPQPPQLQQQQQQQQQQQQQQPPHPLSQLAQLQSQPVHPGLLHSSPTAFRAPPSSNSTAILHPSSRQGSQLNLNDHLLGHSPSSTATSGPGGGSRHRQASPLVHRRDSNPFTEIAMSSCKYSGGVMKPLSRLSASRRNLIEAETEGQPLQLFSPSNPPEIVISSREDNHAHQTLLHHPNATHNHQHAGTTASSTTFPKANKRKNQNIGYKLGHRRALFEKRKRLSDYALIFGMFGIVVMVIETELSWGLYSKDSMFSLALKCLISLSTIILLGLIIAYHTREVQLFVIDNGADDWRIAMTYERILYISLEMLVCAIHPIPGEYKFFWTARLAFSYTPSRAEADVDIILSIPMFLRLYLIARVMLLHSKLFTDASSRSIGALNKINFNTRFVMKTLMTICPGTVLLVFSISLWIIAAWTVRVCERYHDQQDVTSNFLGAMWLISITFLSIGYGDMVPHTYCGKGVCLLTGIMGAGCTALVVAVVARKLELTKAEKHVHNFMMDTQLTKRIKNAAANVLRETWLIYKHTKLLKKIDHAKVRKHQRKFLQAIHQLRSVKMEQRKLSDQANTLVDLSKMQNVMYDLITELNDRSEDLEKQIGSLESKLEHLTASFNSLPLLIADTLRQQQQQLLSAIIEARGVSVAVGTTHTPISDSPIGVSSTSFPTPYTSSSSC
T1 sequence (Q9H2S1 whole entry): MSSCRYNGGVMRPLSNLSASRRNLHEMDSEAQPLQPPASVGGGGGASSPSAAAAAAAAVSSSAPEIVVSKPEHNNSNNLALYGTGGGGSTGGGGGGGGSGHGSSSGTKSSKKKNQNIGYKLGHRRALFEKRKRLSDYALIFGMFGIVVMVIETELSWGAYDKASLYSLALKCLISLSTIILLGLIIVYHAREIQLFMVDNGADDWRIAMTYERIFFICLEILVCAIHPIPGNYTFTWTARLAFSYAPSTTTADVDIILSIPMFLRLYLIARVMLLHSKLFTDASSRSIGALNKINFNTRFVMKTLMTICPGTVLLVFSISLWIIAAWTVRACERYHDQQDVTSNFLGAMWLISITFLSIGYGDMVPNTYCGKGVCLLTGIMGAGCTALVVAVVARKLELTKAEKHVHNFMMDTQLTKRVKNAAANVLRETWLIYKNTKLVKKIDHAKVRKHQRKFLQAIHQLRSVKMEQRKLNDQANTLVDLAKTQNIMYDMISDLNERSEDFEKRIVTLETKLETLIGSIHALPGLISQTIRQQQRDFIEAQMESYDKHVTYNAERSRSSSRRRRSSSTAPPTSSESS
Small conductance calcium-activated potassium channel protein 2 (Rattus norvegicus, UniProt P70604), sequence (P70604 whole entry): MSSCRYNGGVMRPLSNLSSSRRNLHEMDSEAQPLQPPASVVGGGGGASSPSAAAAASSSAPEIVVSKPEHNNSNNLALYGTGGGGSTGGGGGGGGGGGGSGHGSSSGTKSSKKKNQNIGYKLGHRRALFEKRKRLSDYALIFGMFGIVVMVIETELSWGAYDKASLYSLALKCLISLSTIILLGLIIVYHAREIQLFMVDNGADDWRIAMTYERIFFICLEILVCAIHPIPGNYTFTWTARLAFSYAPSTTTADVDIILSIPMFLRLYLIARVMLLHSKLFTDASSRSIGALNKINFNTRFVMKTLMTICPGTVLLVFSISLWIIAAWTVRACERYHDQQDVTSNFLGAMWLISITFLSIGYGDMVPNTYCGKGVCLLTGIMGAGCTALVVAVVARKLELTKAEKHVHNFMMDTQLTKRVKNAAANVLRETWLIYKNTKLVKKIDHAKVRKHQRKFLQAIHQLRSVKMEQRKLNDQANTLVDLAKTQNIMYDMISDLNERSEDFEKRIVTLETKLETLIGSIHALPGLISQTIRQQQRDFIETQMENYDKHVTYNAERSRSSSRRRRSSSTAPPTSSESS

SMILES | inhibition [1] [%] | Ki [2] [nM] | Ki [3] [nM] | also measured
CC(C)c1cccc2c1C(CCCCCC1c3c(cccc3C(C)C)CCN1C)N(C)CC2 (racemic) | 41 | – | – | –
CC(C)c1cccc2cc[n+](C)c(CCCCCc3c4c(C(C)C)cccc4cc[n+]3C)c12 | – | 575 | 878 | –
CC(C)c1cccc2c1C(CCCC1c3c(cccc3C(C)C)CCN1C)N(C)CC2 (racemic) | 41 | – | – | –
CC(C)c1cccc2c1C(Cc1cccc(CC3c4c(cccc4C(C)C)CCN3C)c1)N(C)CC2 (racemic) | 41 | – | – | –
CC(C)c1cccc2cc[n+](C)c(CCCc3c4c(C(C)C)cccc4cc[n+]3C)c12 | – | 837 | 593 | –
CC(C)c1cccc2c1C(CCCCC1c3c(cccc3C(C)C)CCN1C)N(C)CC2 (racemic) | 41 | – | – | –
CC(C)c1cccc2cc[n+](C)c(Cc3cccc(Cc4c5c(C(C)C)cccc5cc[n+]4C)c3)c12 | – | 46 | 90 | IC50 [4]: 1600 nM; IC50 [5]: 2970 nM
CC(C)c1cccc2c1C(Cc1ccc(CC3c4c(cccc4C(C)C)CCN3C)cc1)N(C)CC2 (racemic) | 41 | – | – | –
CC(C)c1cccc2cc[n+](C)c(CCCCc3c4c(C(C)C)cccc4cc[n+]3C)c12 | – | 214 | 194 | –
CC(C)c1cccc2cc[n+](C)c(Cc3ccc(Cc4c5c(C(C)C)cccc5cc[n+]4C)cc3)c12 | – | 1270 | 397 | –
